Test system: MV-4-11 cells
Assay: Gene expression microarray analysis (Affymetrix PrimeView) and GSEA
Assay type: cell-based, human
Set-up: RFU PODN (11730768_x_at) / Fold change /veh PODN (11730768_x_at) / RFU LINC00158 (11744669_a_at) / Fold change /veh LINC00158 (11744669_a_at) / RFU DUSP10 (11751237_a_at) / Fold change /veh DUSP10 (11751237_a_at) / RFU ID3 (11757404_x_at) / Fold change /veh ID3 (11757404_x_at) / RFU PLEKHG5 (11737974_s_at) / Fold change /veh PLEKHG5 (11737974_s_at) / RFU LRRC4B (11730491_at) / Fold change /veh LRRC4B (11730491_at) / RFU GIMAP4 (11747438_a_at) / Fold change /veh GIMAP4 (11747438_a_at) / RFU KRT8 (11758183_x_at) / Fold change /veh KRT8 (11758183_x_at) / RFU CNN1 (11734310_a_at) / Fold change /veh CNN1 (11734310_a_at) / RFU VPS37D (11726825_at) / Fold change /veh VPS37D (11726825_at) / RFU C10orf10 (11716522_x_at) / Fold change /veh C10orf10 (11716522_x_at) / RFU KIR2DL2 /// KIR2DL4 /// KIR2DL5A /// KIR2DL5B /// KIR2DS1 /// KIR2DS2 /// KIR2DS3 /// KIR2DS4 /// KIR3DL3 /// KIR3DL3 /// KIR3DS1 (11738374_at) / Fold change /veh KIR2DL2 /// KIR2DL4 /// KIR2DL5A /// KIR2DL5B /// KIR2DS1 /// KIR2DS2 /// KIR2DS3 /// KIR2DS4 /// KIR3DL3 /// KIR3DL3 /// KIR3DS1 (11738374_at) / RFU C1QL1 (11718748_at) / Fold change /veh C1QL1 (11718748_at) / RFU TMPRSS4 (11747572_a_at) / Fold change /veh TMPRSS4 (11747572_a_at) / RFU HAMP (11756126_x_at) / Fold change /veh HAMP (11756126_x_at) / RFU RNFT2 (11725882_a_at) / Fold change /veh RNFT2 (11725882_a_at) / RFU NR4A2 (11747474_a_at) / Fold change /veh NR4A2 (11747474_a_at) / RFU ABCC12 (11746883_a_at) / Fold change /veh ABCC12 (11746883_a_at) / RFU TMEM136 (11760407_x_at) / Fold change /veh TMEM136 (11760407_x_at) / RFU CLDN22 /// WWC2 (11732394_at) / Fold change /veh CLDN22 /// WWC2 (11732394_at) / RFU HLA-DPB1 (11760878_x_at) / Fold change /veh HLA-DPB1 (11760878_x_at) / RFU SPINT1 (11716480_a_at) / Fold change /veh SPINT1 (11716480_a_at) / RFU GAP43 (11754022_s_at) / Fold change /veh GAP43 (11754022_s_at) / RFU A4GNT (11735810_at) / Fold change /veh A4GNT (11735810_at) / RFU PRB3 (11715151_x_at) / Fold change /veh PRB3 (11715151_x_at) / RFU TUBB4B (11761932_at) / Fold change /veh TUBB4B (11761932_at) / RFU CAPN14 (11732068_a_at) / Fold change /veh CAPN14 (11732068_a_at) / RFU TMCC2 (11721928_a_at) / Fold change /veh TMCC2 (11721928_a_at) / RFU IRGQ (11745062_a_at) / Fold change /veh IRGQ (11745062_a_at) / RFU FAM174B (11720279_a_at) / Fold change /veh FAM174B (11720279_a_at) / RFU TMPRSS4 (11748680_a_at) / Fold change /veh TMPRSS4 (11748680_a_at) / RFU FAM212B (11763350_a_at) / Fold change /veh FAM212B (11763350_a_at) / RFU PLEKHG5 (11743358_a_at) / Fold change /veh PLEKHG5 (11743358_a_at) / RFU ZSCAN30 (11745921_a_at) / Fold change /veh ZSCAN30 (11745921_a_at) / RFU CMKLR1 (11741424_a_at) / Fold change /veh CMKLR1 (11741424_a_at) / RFU LOC101060620 /// MAPK8IP1 (11723275_at) / Fold change /veh LOC101060620 /// MAPK8IP1 (11723275_at) / RFU SPTSSB (11747773_x_at) / Fold change /veh SPTSSB (11747773_x_at) / RFU PRSS12 (11739890_at) / Fold change /veh PRSS12 (11739890_at) / RFU BIN1 (11741810_x_at) / Fold change /veh BIN1 (11741810_x_at) / RFU WNT11 (11732464_a_at) / Fold change /veh WNT11 (11732464_a_at) / RFU C10orf10 (11716521_a_at) / Fold change /veh C10orf10 (11716521_a_at) / RFU C5orf56 (11738089_at) / Fold change /veh C5orf56 (11738089_at) / RFU CYB561 (11721691_x_at) / Fold change /veh CYB561 (11721691_x_at) / RFU ANKRD19P (11752326_a_at) / Fold change /veh ANKRD19P (11752326_a_at) / RFU OR2T12 /// OR2T33 /// OR2T8 (11738714_s_at) / Fold change /veh OR2T12 /// OR2T33 /// OR2T8 (11738714_s_at) / RFU VCAN (11748164_a_at) / Fold change /veh VCAN (11748164_a_at) / RFU JSRP1 (11732532_at) / Fold change /veh JSRP1 (11732532_at) / RFU KRTAP10-11 (11738290_x_at) / Fold change /veh KRTAP10-11 (11738290_x_at) / RFU MYO3A (11730013_a_at) / Fold change /veh MYO3A (11730013_a_at) / RFU EBF3 (11725865_a_at) / Fold change /veh EBF3 (11725865_a_at) / RFU CAMK2N1 (11719241_x_at) / Fold change /veh CAMK2N1 (11719241_x_at) / RFU C5orf56 (11738088_a_at) / Fold change /veh C5orf56 (11738088_a_at) / RFU OLFML3 (11715873_a_at) / Fold change /veh OLFML3 (11715873_a_at) / RFU LOC100653217 /// NTM (11731650_a_at) / Fold change /veh LOC100653217 /// NTM (11731650_a_at) / RFU MAPK11 (11762145_a_at) / Fold change /veh MAPK11 (11762145_a_at) / RFU FIZ1 (11724087_x_at) / Fold change /veh FIZ1 (11724087_x_at) / RFU OASL (11726364_x_at) / Fold change /veh OASL (11726364_x_at) / RFU SOX15 (11748057_x_at) / Fold change /veh SOX15 (11748057_x_at) / RFU CD79A (11719716_a_at) / Fold change /veh CD79A (11719716_a_at) / RFU HIST1H1D (11736915_at) / Fold change /veh HIST1H1D (11736915_at) / RFU CASKIN2 (11723855_a_at) / Fold change /veh CASKIN2 (11723855_a_at) / RFU LOC730098 (11760151_x_at) / Fold change /veh LOC730098 (11760151_x_at) / RFU OR4N2 (11742367_at) / Fold change /veh OR4N2 (11742367_at) / RFU PRRT2 (11749266_a_at) / Fold change /veh PRRT2 (11749266_a_at) / RFU SNX32 (11753110_a_at) / Fold change /veh SNX32 (11753110_a_at) / RFU CDHR5 (11726645_a_at) / Fold change /veh CDHR5 (11726645_a_at) / RFU RCAN1 (11760418_a_at) / Fold change /veh RCAN1 (11760418_a_at) / RFU FAM167A (11723789_a_at) / Fold change /veh FAM167A (11723789_a_at) / RFU FAM26E (11764081_at) / Fold change /veh FAM26E (11764081_at) / RFU ISYNA1 (11749810_s_at) / Fold change /veh ISYNA1 (11749810_s_at) / RFU ACY1 (11761880_at) / Fold change /veh ACY1 (11761880_at) / RFU 11764098_at / Fold change /veh 11764098_at / RFU SAMD14 (11745864_x_at) / Fold change /veh SAMD14 (11745864_x_at) / RFU NPB (11741838_a_at) / Fold change /veh NPB (11741838_a_at) / RFU TMPRSS6 (11731388_a_at) / Fold change /veh TMPRSS6 (11731388_a_at) / RFU KRTAP10-2 (11738614_at) / Fold change /veh KRTAP10-2 (11738614_at) / RFU ARHGAP8 /// PRR5-ARHGAP8 (11727945_x_at) / Fold change /veh ARHGAP8 /// PRR5-ARHGAP8 (11727945_x_at) / RFU KRTAP5-7 /// NADSYN1 (11734609_at) / Fold change /veh KRTAP5-7 /// NADSYN1 (11734609_at) / RFU RASL12 (11751679_a_at) / Fold change /veh RASL12 (11751679_a_at) / RFU CDKN2B (11736163_a_at) / Fold change /veh CDKN2B (11736163_a_at) / RFU PRF1 (11729649_at) / Fold change /veh PRF1 (11729649_at) / RFU, ZNF638 /// ZNF638-IT1 / Fold change vs veh, ZNF638 /// ZNF638-IT1 / RFU, PANK3 / Fold change vs veh, PANK3 / RFU, SH3YL1 / Fold change vs veh, SH3YL1 / RFU, ZEB2 / Fold change vs veh, ZEB2 / RFU, NRIP1 / Fold change vs veh, NRIP1 / RFU, PTTG1IP / Fold change vs veh, PTTG1IP / RFU, CAPN2 / Fold change vs veh, CAPN2 / RFU, MED14 / Fold change vs veh, MED14 / RFU, SNORA58 / Fold change vs veh, SNORA58 / RFU, C1orf63 / Fold change vs veh, C1orf63 / RFU, LRRFIP1 / Fold change vs veh, LRRFIP1 / RFU, NDUFAF7 / Fold change vs veh, NDUFAF7 / RFU, SLC12A2 / Fold change vs veh, SLC12A2 / RFU, IBTK / Fold change vs veh, IBTK / RFU, ESF1 / Fold change vs veh, ESF1 / Fold change vs veh, TMEM50B / RFU, TAOK1 / Fold change vs veh, TAOK1 / RFU, ACBD3 / Fold change vs veh, ACBD3 / RFU, TMA16 / Fold change vs veh, TMA16 / RFU, RWDD3 / Fold change vs veh, RWDD3 / RFU, BCAT1 / Fold change vs veh, BCAT1 / RFU, EDEM3 / Fold change vs veh, EDEM3 / RFU, TMEM33 / Fold change vs veh, TMEM33 / RFU, WDR75 / Fold change vs veh, WDR75 / RFU, AHCTF1 / Fold change vs veh, AHCTF1 / RFU, TFRC / Fold change vs veh, TFRC / RFU, ZDHHC17 / Fold change vs veh, ZDHHC17 / RFU, NOM1 / Fold change vs veh, NOM1 / RFU, ARL8B / Fold change vs veh, ARL8B / RFU, ZBTB11 / Fold change vs veh, ZBTB11 / RFU, TAMM41 / Fold change vs veh, TAMM41 / RFU, KIAA1704 /// LOC100996395 / Fold change vs veh, KIAA1704 /// LOC100996395 / RFU, ING1 / Fold change vs veh, ING1 / RFU, TRMT61B / Fold change vs veh, TRMT61B / RFU, FUBP3 / Fold change vs veh, FUBP3 / RFU, TP53 / Fold change vs veh, TP53 / RFU, TNKS2 / Fold change vs veh, TNKS2 / RFU, ZFP14 / Fold change vs veh, ZFP14 / RFU, ACTR2 / Fold change vs veh, ACTR2 / RFU, PPP3R1 / Fold change vs veh, PPP3R1 / RFU, PIK3R1 / Fold change vs veh, PIK3R1 / RFU, HNRNPA1 / Fold change vs veh, HNRNPA1 / RFU, RNF170 / Fold change vs veh, RNF170 / RFU, ZNF28 / Fold change vs veh, ZNF28 / RFU, RNGTT / Fold change vs veh, RNGTT / RFU, OGT / Fold change vs veh, OGT / RFU, BRD1 / Fold change vs veh, BRD1 / RFU, MARS / Fold change vs veh, MARS / RFU, ZNF655 / Fold change vs veh, ZNF655 / RFU, FAHD1 / Fold change vs veh, FAHD1 / RFU, BDP1 / Fold change vs veh, BDP1 / RFU, LRRCC1 / Fold change vs veh, LRRCC1 / RFU, ARID1A / Fold change vs veh, ARID1A / RFU, ZNF146 / Fold change vs veh, ZNF146 / RFU, ZNF330 / Fold change vs veh, ZNF330 / RFU, GPN3 / Fold change vs veh, GPN3 / RFU, C9orf123 / Fold change vs veh, C9orf123 / RFU, N4BP2L2 / Fold change vs veh, N4BP2L2 / RFU, ARFIP1 / Fold change vs veh, ARFIP1 / RFU, FAM179B / Fold change vs veh, FAM179B / RFU, BCL10 / Fold change vs veh, BCL10 / RFU, UHRF1BP1L / Fold change vs veh, UHRF1BP1L / RFU, BET1 / Fold change vs veh, BET1 / RFU, CNOT2 / Fold change vs veh, CNOT2 / RFU, ZNF268 / Fold change vs veh, ZNF268 / Fold change vs veh, ZNF507 / RFU, DGCR2 / Fold change vs veh, DGCR2 / RFU, WDSUB1 / Fold change vs veh, WDSUB1 / Fold change vs veh, HSP90B1 /// MIR3652 / RFU, ADSS / Fold change vs veh, ADSS / RFU, GK / Fold change vs veh, GK / RFU, ZNF148 / Fold change vs veh, ZNF148 / RFU, TAF9 / Fold change vs veh, TAF9 / RFU, SLC1A5 / Fold change vs veh, SLC1A5 / RFU, SLMO2 / Fold change vs veh, SLMO2 / RFU, ABCC4 / Fold change vs veh, ABCC4 / RFU, LOC101060439 /// RAP1B / Fold change vs veh, LOC101060439 /// RAP1B / RFU, RFX7 / Fold change vs veh, RFX7 / RFU, GTPBP10 / Fold change vs veh, GTPBP10 / RFU, CNEP1R1 / Fold change vs veh, CNEP1R1 / RFU, BIVM-ERCC5 /// ERCC5 / Fold change vs veh, BIVM-ERCC5 /// ERCC5 / RFU, ILF3 / Fold change vs veh, ILF3 / RFU 11762660_at / Fold change /veh 11762660_at / RFU VCAN (11757783_s_at) / Fold change /veh VCAN (11757783_s_at) / RFU DDX43 (11728927_at) / Fold change /veh DDX43 (11728927_at) / RFU KRT8 (11758188_x_at) / Fold change /veh KRT8 (11758188_x_at) / RFU NKD1 (11759106_at) / Fold change /veh NKD1 (11759106_at) / RFU SRD5A1 (11742802_a_at) / Fold change /veh SRD5A1 (11742802_a_at) / RFU TPSAB1 /// TPSB2 (11721975_s_at) / Fold change /veh TPSAB1 /// TPSB2 (11721975_s_at) / RFU GSTM3 (11746129_a_at) / Fold change /veh GSTM3 (11746129_a_at) / RFU IL23R (11737362_x_at) / Fold change /veh IL23R (11737362_x_at) / RFU TMEM51 (11727254_a_at) / Fold change /veh TMEM51 (11727254_a_at) / RFU PIWIL2 (11732686_x_at) / Fold change /veh PIWIL2 (11732686_x_at) / RFU ORM1 (11744905_x_at) / Fold change /veh ORM1 (11744905_x_at) / RFU CCDC152 (11743942_at) / Fold change /veh CCDC152 (11743942_at) / RFU ECM1 (11717891_a_at) / Fold change /veh ECM1 (11717891_a_at) / RFU IL23R (11748794_a_at) / Fold change /veh IL23R (11748794_a_at) / RFU TNFAIP8L3 (11732012_x_at) / Fold change /veh TNFAIP8L3 (11732012_x_at) / RFU MBOAT4 (11741988_at) / Fold change /veh MBOAT4 (11741988_at) / RFU 11764193_at / Fold change /veh 11764193_at / RFU TMEM53 (11763286_at) / Fold change /veh TMEM53 (11763286_at) / RFU MAGEB2 (11727129_at) / Fold change /veh MAGEB2 (11727129_at) / RFU TMEM200A (11744735_a_at) / Fold change /veh TMEM200A (11744735_a_at) / RFU CCDC152 (11751479_a_at) / Fold change /veh CCDC152 (11751479_a_at) / RFU FAM211A (11726209_a_at) / Fold change /veh FAM211A (11726209_a_at) / RFU RGS16 (11746705_a_at) / Fold change /veh RGS16 (11746705_a_at) / RFU VCAN (11755009_s_at) / Fold change /veh VCAN (11755009_s_at) / RFU RHOB (11743442_s_at) / Fold change /veh RHOB (11743442_s_at) / RFU RGS16 (11720943_a_at) / Fold change /veh RGS16 (11720943_a_at) / RFU RGS16 (11720944_at) / Fold change /veh RGS16 (11720944_at) / RFU, VPS4B / Fold change vs veh, VPS4B / RFU, CREB1 / Fold change vs veh, CREB1 / RFU, DNAJC13 / Fold change vs veh, DNAJC13 / RFU, GNAQ / Fold change vs veh, GNAQ / RFU, CDK5R1 / Fold change vs veh, CDK5R1 / RFU, ZRANB3 / Fold change vs veh, ZRANB3 / RFU, CUL4A / Fold change vs veh, CUL4A / RFU, CCNY / Fold change vs veh, CCNY / RFU, UFL1 / Fold change vs veh, UFL1 / RFU, COG3 / Fold change vs veh, COG3 / RFU, DIAPH2 / Fold change vs veh, DIAPH2 / RFU, SKA2 / Fold change vs veh, SKA2 / RFU, AFF3 / Fold change vs veh, AFF3 / RFU, LMF1 / Fold change vs veh, LMF1 / RFU, IPO11 / Fold change vs veh, IPO11 / RFU, DFFB / Fold change vs veh, DFFB / RFU, FOXP1 / Fold change vs veh, FOXP1 / RFU, CARD8 / Fold change vs veh, CARD8 / RFU, STRN3 / Fold change vs veh, STRN3 / RFU, ADK / Fold change vs veh, ADK / RFU, RASSF2 / Fold change vs veh, RASSF2 / RFU, WIPF1 / Fold change vs veh, WIPF1 / RFU, LARP1B / Fold change vs veh, LARP1B / RFU, RASA1 / Fold change vs veh, RASA1 / RFU, RB1 / Fold change vs veh, RB1 / RFU, PPFIA1 / Fold change vs veh, PPFIA1 / RFU, MAT2A / Fold change vs veh, MAT2A / RFU, CCT5 / Fold change vs veh, CCT5 / RFU, WDR92 / Fold change vs veh, WDR92 / RFU, CUX1 / Fold change vs veh, CUX1 / RFU, TTC7A / Fold change vs veh, TTC7A / RFU, TMEM135 / Fold change vs veh, TMEM135 / RFU, DEPTOR / Fold change vs veh, DEPTOR / RFU, CPM / Fold change vs veh, CPM / RFU, DNAJB6 / Fold change vs veh, DNAJB6 / RFU, CACNA2D3 / Fold change vs veh, CACNA2D3 / RFU, DTX4 / Fold change vs veh, DTX4 / RFU, TFCP2 / Fold change vs veh, TFCP2 / RFU, GMCL1 /// GMCL1P1 / Fold change vs veh, GMCL1 /// GMCL1P1 / RFU, AEBP2 / Fold change vs veh, AEBP2 / RFU, SNHG1 /// SNORD22 /// SNORD25 /// SNORD26 /// SNORD27 /// SNORD28 /// SNORD29 /// SNORD31 / Fold change vs veh, SNHG1 /// SNORD22 /// SNORD25 /// SNORD26 /// SNORD27 /// SNORD28 /// SNORD29 /// SNORD31 / Fold change (Aza/veh), C12orf56 (ProbeSet 11735607_a_at) / Fold change (ACY-1035/veh), C12orf56 (ProbeSet 11735607_a_at) / Fold change (Aza/veh), FGFR1OP (ProbeSet 11751329_s_at) / Fold change (ACY-1035/veh), FGFR1OP (ProbeSet 11751329_s_at) / Fold change (Aza/veh), VPS36 (ProbeSet 11739960_a_at) / Fold change (ACY-1035/veh), VPS36 (ProbeSet 11739960_a_at) / RFU SYPL1 (11715823_x_at) / Fold change /veh SYPL1 (11715823_x_at) / RFU IGFBP7 (11715501_s_at) / Fold change /veh IGFBP7 (11715501_s_at) / RFU REEP3 (11722064_at) / Fold change /veh REEP3 (11722064_at) / RFU IGLL1 (11728026_x_at) / Fold change /veh IGLL1 (11728026_x_at): dose or concentration left out as unconfirmed
Conditions: MV-4-11 cells, 48 hours

Nc1ncn([C@@H]2O[C@H](CO)[C@@H](O)[C@H]2O)c(=O)n1 [azacitidine]
Fold change /veh PRSS12 (11739890_at): 0.94

From publication PMC5218480 (PLoS ONE, 2017)
